How the values were obtained:
Rattus norvegicus = species: Rattus norvegicus; assay: Selectivity index, ratio of IC50 for HO-1 in Sprague-Dawley rat spleen microsomal fractions to IC50 for HO-2 in Sprague-Dawley rat brain microsomal fractions; assay type: microsomes; details: Microsome
Heme oxygenase 2 = molecular target: T1, Heme oxygenase 2 (Rattus norvegicus, UniProt P23711); assay: Inhibition of HO-2 in Sprague-Dawley rat brain microsomal fractions assessed as carbon monoxide formation from methemalbumin after 10 mins by gas chromatography analysis; assay type: microsomes
T1 sequence (P23711 whole entry): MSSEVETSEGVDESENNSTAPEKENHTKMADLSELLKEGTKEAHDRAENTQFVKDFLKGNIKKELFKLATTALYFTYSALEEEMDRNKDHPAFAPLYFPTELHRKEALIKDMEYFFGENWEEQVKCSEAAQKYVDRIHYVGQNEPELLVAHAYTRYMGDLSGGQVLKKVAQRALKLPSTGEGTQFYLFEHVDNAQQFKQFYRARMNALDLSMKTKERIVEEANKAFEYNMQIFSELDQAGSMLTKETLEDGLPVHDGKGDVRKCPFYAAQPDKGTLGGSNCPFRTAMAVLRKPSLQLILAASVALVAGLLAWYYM

Heme oxygenase 1 = molecular target: T2, Heme oxygenase 1 (Rattus norvegicus, UniProt P06762); assay: Inhibition of HO-1 in Sprague-Dawley rat spleen microsomal fractions assessed as carbon monoxide formation from methemalbumin after 10 mins by gas chromatography analysis; assay type: microsomes, Microsome
T2 sequence (P06762 whole entry): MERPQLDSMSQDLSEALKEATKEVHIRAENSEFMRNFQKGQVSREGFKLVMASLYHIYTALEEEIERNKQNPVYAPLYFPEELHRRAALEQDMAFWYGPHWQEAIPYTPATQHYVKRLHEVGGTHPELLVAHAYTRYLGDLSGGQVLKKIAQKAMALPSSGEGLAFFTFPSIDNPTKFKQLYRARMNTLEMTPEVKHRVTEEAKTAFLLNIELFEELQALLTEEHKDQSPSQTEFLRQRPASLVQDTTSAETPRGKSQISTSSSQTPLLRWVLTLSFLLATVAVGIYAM

Ratio IC50 (Rattus norvegicus) | IC50 (Heme oxygenase 2) | IC50 (Heme oxygenase 1) | SMILES
> 20 | 4.8 µM | > 100 µM | Clc1ccccc1Cn1c(CN2CCCC2)nc2ccccc21
24 | 4 µM | 96 µM | Clc1ccc(Cl)c(Cn2c(CN3CCCC3)nc3ccccc32)c1
42 | 1.8 µM | 76 µM | Cc1ccccc1Cn1c(CN2CCCC2)nc2ccccc21
> 10 | 9.2 µM | > 100 µM | Clc1cccc(Cl)c1Cn1c(CN2CCCC2)nc2ccccc21
26 | 1.6 µM | 42 µM | Brc1ccccc1Cn1c(CN2CCCC2)nc2ccccc21
10 | 6.1 µM | 62 µM | Clc1ccc(Cn2c(CN3CCCC3)nc3ccccc32)c(Cl)c1
> 47 | 2.1 µM | > 100 µM | Clc1cc(Cl)cc(Cn2c(CN3CCCC3)nc3ccccc32)c1
> 6 | 14.7 µM | > 100 µM | Clc1cccc(Cn2c(CN3CCCC3)nc3ccccc32)c1Cl
> 29 | 3.4 µM | > 100 µM | Clc1ccc(Cn2c(CN3CCCC3)nc3ccccc32)cc1
> 5 | 17 µM | > 100 µM | Clc1ccc(Cn2c(CN3CCCC3)nc3ccccc32)cc1Cl
> 60 | 1.65 µM | > 100 µM | Clc1cccc(Cn2c(CN3CCCC3)nc3ccccc32)c1

Continued, molecule first:

SMILES | Ratio IC50 (Rattus norvegicus) | IC50 (Heme oxygenase 2) | IC50 (Heme oxygenase 1)
Cc1cccc(Cn2c(CN3CCCC3)nc3ccccc32)c1 | > 20 | 5 µM | > 100 µM
FC(F)(F)c1ccc(Cn2c(CN3CCCC3)nc3ccccc32)cc1 | > 6.4 | 15.6 µM | > 100 µM
c1ccc2c(c1)nc(CN1CCCC1)n2CC1CCCCC1 | > 16 | 6 µM | > 100 µM
c1ccc(Cn2c(CN3CCCC3)nc3ccccc32)cc1 | > 32 | 3.1 µM | > 100 µM
CSc1ccc(Cn2c(CN3CCCC3)nc3ccccc32)cc1 | > 6 | 15 µM | > 100 µM
CCCn1c(CN2CCCC2)nc2ccccc21 | > 3 | 27 µM | > 100 µM
N#Cc1cccc(Cn2c(CN3CCCC3)nc3ccccc32)c1 | > 6 | 15.8 µM | > 100 µM
COc1ccc(Cn2c(CN3CCCC3)nc3ccccc32)cc1 | > 5 | 18 µM | > 100 µM
Brc1cccc(Cn2c(CN3CCCC3)nc3ccccc32)c1 | > 66 | 1.5 µM | > 100 µM
c1ccc(COc2ccc(Cn3c(CN4CCCC4)nc4ccccc43)cc2)cc1 | > 1.5 | 63 µM | > 100 µM
O=[N+]([O-])c1ccc(Cn2c(CN3CCCC3)nc3ccccc32)cc1 | > 3 | 27 µM | > 100 µM
c1ccc(OCCn2c(CN3CCCC3)nc3ccccc32)cc1 |  | > 100 µM | > 100 µM
Cc1ccc(Cn2c(CN3CCCC3)nc3ccccc32)cc1 | > 20 | 5 µM | > 100 µM
N#Cc1ccccc1Cn1c(CN2CCCC2)nc2ccccc21 | > 25 | 4 µM | > 100 µM
c1ccc(C(c2ccccc2)n2c(CN3CCCC3)nc3ccccc32)cc1 | > 24 | 4.1 µM | > 100 µM
O=[N+]([O-])c1cccc(Cn2c(CN3CCCC3)nc3ccccc32)c1 | > 76 | 1.3 µM | > 100 µM
Brc1ccc(Cn2c(CN3CCCC3)nc3ccccc32)cc1 | > 38 | 2.6 µM | > 100 µM
c1ccc(CCn2c(CN3CCCC3)nc3ccccc32)cc1 | > 37 | 2.7 µM | > 100 µM
CC(C)c1ccc(Cn2c(CN3CCCC3)nc3ccccc32)cc1 | > 1.8 | 55 µM | > 100 µM
c1ccc2[nH]c(CN3CCCC3)nc2c1 |  | > 100 µM | > 100 µM
c1ccc2cc(Cn3c(CN4CCCC4)nc4ccccc43)ccc2c1 | > 20 | 5 µM | > 100 µM
N#Cc1ccc(Cn2c(CN3CCCC3)nc3ccccc32)cc1 | > 9 | 11 µM | > 100 µM
O=[N+]([O-])c1ccccc1Cn1c(CN2CCCC2)nc2ccccc21 | > 28 | 3.5 µM | > 100 µM
Fc1ccc(Cn2c(CN3CCCC3)nc3ccccc32)cc1 | > 50 | 2 µM | > 100 µM
Ic1ccc(Cn2c(CN3CCCC3)nc3ccccc32)cc1 | > 13 | 7.6 µM | > 100 µM

Source: ChEMBL document CHEMBL2434827, “Selective inhibition of heme oxygenase-2 activity by analogs of 1-(4-chlorobenzyl)-2-(pyrrolidin-1-ylmethyl)-1H-benzimidazole (clemizole): Exploration of the effects of substituents at the N-1 position” (Bioorg Med Chem, 2013)
